For this experiment, the target named is T1, ER (Homo sapiens, UniProt P03372).
T1 construct: T47D breast cancer cells were subcultured in cell culture medium; endogenous in cells; host or cells: T47D breast cancer cells
T1 sequence (P03372 1-595): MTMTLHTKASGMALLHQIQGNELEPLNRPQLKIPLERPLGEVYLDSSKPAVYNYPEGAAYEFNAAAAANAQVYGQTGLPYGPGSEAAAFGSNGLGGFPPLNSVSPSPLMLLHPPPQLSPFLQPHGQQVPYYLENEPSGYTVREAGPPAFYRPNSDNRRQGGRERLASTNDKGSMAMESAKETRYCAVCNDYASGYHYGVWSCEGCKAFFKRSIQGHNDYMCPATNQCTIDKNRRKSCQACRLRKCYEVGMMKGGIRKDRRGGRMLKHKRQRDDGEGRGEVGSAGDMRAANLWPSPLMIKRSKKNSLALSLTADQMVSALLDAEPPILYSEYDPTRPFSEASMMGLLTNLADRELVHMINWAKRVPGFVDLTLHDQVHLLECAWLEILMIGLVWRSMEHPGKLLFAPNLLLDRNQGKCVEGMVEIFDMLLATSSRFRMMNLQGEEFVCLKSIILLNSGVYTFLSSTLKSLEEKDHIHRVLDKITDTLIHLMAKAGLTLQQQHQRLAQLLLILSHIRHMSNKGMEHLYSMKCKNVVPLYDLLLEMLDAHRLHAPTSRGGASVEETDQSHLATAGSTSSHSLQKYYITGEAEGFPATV
Description: Degradation activities on ER (ELISA) in T47D breast cancer cells. Type of experiment: cell-based. The conditions noted are these: T47D cells, 24 h, ELISA; for DC50: concentration required to degrade 50% of the target protein; for Dmax: maximum percentage of target protein degraded, read-out: Dmax. As for the experimental part:
T47D breast cancer cells were subcultured in cell culture medium, and then the cells in good growth condition were seeded into 96-well plates at 80 µL/well, with 2.5×10^4 cells per well. The cells were incubated in a 37° C., 5% CO2 incubator for 3 days. The drug was prepared into a 10 mM stock solution with dimethyl sulfoxide (DMSO). Prior to use, the stock solution was diluted with cell culture medium to obtain six final concentrations (100 nM, 25 nM, 6.25 nM, 1.56 nM, 0.39 nM, and […]), and gently mixed. Additionally, negative control wells (only containing culture medium) and positive control wells (only containing cells and DMSO) were included. After the cells were incubated in the incubator for 24 h, the cells were rinsed once with ice-cold 1×PBS. […] The plate was sealed with plastic film, and incubated in a 37° C. incubator for 2 h. The film was removed. 200 μL of 1× washing buffer was added to each well, and then the plate was shaken for 5 min. The washing buffer was discarded, and the plate was pat-dried. The plate was washed four times. 100 μL of freshly prepared detection antibody (green) was added to each well of the ELISA plate. The plate was sealed with plastic film, and then incubated in a 37° C. incubator for 1 h. The film was removed, and the detection antibody was discarded. The plate was pat-dried. 200 μL of 1× washing buffer was added to each well, and then the plate was shaken for 5 min. The washing buffer was discarded, and the plate was pat-dried. The plate was washed four times. 100 μL of freshly prepared HRP-labeled secondary antibody (red) was added to each well of the ELISA plate. The plate was sealed with plastic film, and incubated in a 37° C. incubator for 30 min. The film was removed, the secondary antibody was discarded, and the plate was pat-dried, followed by adding 200 μL of 1× washing buffer to each well. The plate was shaken for 5 min, and the washing buffer was discarded before pat-drying the plate. The plate was washed four times. 100 μl of TMB substrate was added to each well of the ELISA plate, followed by incubating in a 37° C. incubator for 5 min. 100 μL of STOP solution was added to each well of the ELISA plate, and the plate was gently shaken for a few seconds. The bottom of each well was wiped with lint-free cloth. Within 30 min after adding the STOP solution, the absorbance was read at 450 nm. […] The data were analyzed using the Dose-response equation in GraphPad Prism8 software to obtain the DC50 and Dmax values, and both of them are important indicators for measuring the degradation activities of compounds on target proteins. […] The Dmax value represents the maximum percentage of target protein that can be degraded by the compound.
In general terms: ELISA stands for enzyme-linked immunosorbent assay.

Broadly, the DC50 is the concentration giving 50% degradation. The low end stands for degradation at low concentration, the high end for degradation only at high concentration. As a reminder, the Dmax is the greatest extent of degradation seen.

Turning to `O=C1CC[C@H](N2Cc3cc(N4CC5(CCN(CC6CCN(c7ccc([C@@H]8c9ccc(O)cc9OC[C@@H]8c8ccccc8F)cc7)CC6)CC5)C4)ccc3C2=O)C(=O)N1` [Example 91, (S)-3-(5-(7-((1-(4-((3S, 4R)-3-(2-fluorophenyl)-7-hydroxychroman-4-yl)phenyl)piperidin-4-yl)methyl)-2,7-diazaspiro[3.5]nonane-2-yl)-1-oxoisoinodolin-2-yl)piperidin-2,6-dione], the half-maximal degradation concentration (DC50) is below 10 nM and the Dmax was above 75%.

Compound `O=C1CCC(N2C(=O)c3ccc(N4CC5(CN(CC6CCN(c7ccc([C@@H]8c9ccc(O)cc9CC[C@@H]8c8ccccc8)cc7)CC6)C5)C4)cc3C2=O)C(=O)N1` (stereo partly drawn) [Example 3, 2-(2,6-dioxopiperidin-3-yl)-5-(6-((1-(4-((1R,2S)-6-hydroxyl-2-phenyl-1,2,3,4-tetrahydronaphthalen-1-yl)phenyl)piperidin-4-yl)methyl)-2,6-diazaspiro[3.3]heptan-2-yl)isoinodolin-1,3-dione] gave a DC50 above 100 nM.

For `O=C1CCC(N2Cc3cc(N4CCC(N5CC6(CCN(c7ccc([C@@H]8c9ccc(O)cc9OC[C@@H]8c8ccccc8F)cc7F)CC6)C5)CC4)ccc3C2=O)C(=O)N1` (stereo partly drawn) [Example 68, 3-(5-(4-(7-(2-fluoro-4-((3,4-cis)-3-(2-fluorophenyl)-7-hydroxyl-chroman-4-yl)phenyl)-2,7-diazaspiro[3.5]nonane-2-yl)piperidin-1-yl)-1-oxoisoinodolin-2-yl)pyridine-2,6-dione], the DC50 was below 10 nM and the Dmax is above 75%.

As for `O=C1CCC(N2Cc3cc(N4CC5(CCN(CC6CCN(c7ccc([C@H]8c9ccc(O)cc9OC[C@H]8c8cccc(F)c8F)cc7F)CC6)CC5)C4)ccc3C2=O)C(=O)N1` (stereo partly drawn) [Example 24, 3-(5-(7-((1-(4-((3R,4S)-3-(2,3-difluorophenyl)-7-hydroxychroman-4-yl)-2-fluorophenyl)piperidin-4-yl)methyl)-2,7-diazaspiro[3.5]nonane-2-yl)-1-oxoisoinodolin-2-yl)piperidin-2,6-dione], the DC50 was above 100 nM and the Dmax was below 50%.

`O=C1CCC(N2Cc3cc(N4CC5(CCN(CC6CCN(c7ccc([C@@H]8c9ccc(O)cc9OC[C@@H]8c8cccc(F)c8F)cc7)CC6)CC5)C4)ccc3C2=O)C(=O)N1` (relative stereo) [Example 36, 3-(5-(7-((1-(4-(cis-3-(2,3-difluorophenyl)-7-hydroxychroman-4-yl)phenyl)piperidin-4-yl)methyl)-2,7-diazaspiro[3.5]nonane-2-yl)-1-oxoisoindol-2-yl)piperidin-2,6-dione]: the DC50 is below 10 nM and the Dmax lay in the range of 50 to 75%.

With `O=C1CCC(N2Cc3cc(N4CC5(CCN(CC6CCN(c7c(F)cc(C8=C(c9c(F)cccc9F)COc9cc(OCc%10ccccc%10)ccc98)cc7F)CC6)CC5)C4)ccc3C2=O)C(=O)N1` (centres unmarked) [Example 43], the DC50 is above 100 nM and the Dmax was below 50%.

In the case of `O=C1CCC(N2Cc3cc(N4CC5(CCN(CC6CCN(c7ccc([C@@H]8c9ccc(O)cc9OC[C@@H]8c8ccc(F)cc8F)cc7)CC6)CC5)C4)ccc3C2=O)C(=O)N1` (stereo partly drawn) [Example 46, 3-(5-(7-((1-(4-(cis-3-(2,4-difluorophenyl)-7-hydroxychroman-4-yl)phenyl)piperidin-4-yl)methyl)-2,7-diazaspiro[3.5]nonane-2-yl)-1-oxoisoinodolin-2-yl)piperidin-2,6-dione], the DC50 fell in the range of 10 to 50 nM and the Dmax lay in the range of 50 to 75%.

As to `O=C1CCC(N2Cc3cc(N4CC5(CCN(CC6CCN(c7ccc([C@@H]8c9ccc(O)cc9OC[C@@H]8CC(F)(F)F)cc7)CC6)CC5)C4)ccc3C2=O)C(=O)N1` (stereo partly drawn) [Example 92, 3-(5-(7-((1-(4-(cis-7-hydroxyl-3-(2,2,2-trifluoroethyl)chroman-4-yl)phenyl)piperidin-4-yl)methyl)-2,7-diazaspiro[3.5]nonane-2-yl)-1-oxoisoinodolin-2-yl)piperidin-2,6-dione], the DC50 lay in the range of 10 to 50 nM and the Dmax is 50 to 75%.

For `O=C1CCC(N2Cc3cc(N4CC5(CCN(CC6CCN(c7c(F)cc([C@@H]8c9ccc(O)cc9OC[C@@H]8c8cccc(F)c8F)cc7F)CC6)CC5)C4)ccc3C2=O)C(=O)N1` (stereo partly drawn) [Example 48, 3-(5-(7-((1-(2,6-difluoro-4-(cis-3-(2,3-difluorophenyl)-7-hydroxychroman-4-yl)phenyl)piperidin-4-yl)methyl)-2,7-diazaspiro[3.5]nonane-2-yl)-1-oxoisoinodolin-2-yl)piperidin-2,6-dione], the DC50 was below 10 nM and the Dmax was 50 to 75%.

For the compound `O=C1CCC(N2Cc3cc(N4CC5(CCN(CC6CCN(c7c(F)cc([C@H]8c9ccc(O)cc9OC[C@H]8c8ccccc8F)cc7F)CC6)CC5)C4)ccc3C2=O)C(=O)N1` (stereo partly drawn) [Example 38, 3-(5-(7-((1-(2,6-difluoro-4-((3R,4S)-3-(2-fluorophenyl)-7-hydroxychroman-4-yl)phenyl)piperidin-4-yl)methyl)-2,7-diazaspiro[3.5]nonane-2-yl)-1-oxoisoindol-2-yl)piperidin-2,6-dione], the DC50 was above 100 nM and the Dmax is below 50%.

As for `O=C1CCC(N2Cc3cc(N4CCC(N5CC6(CCN(c7ccc([C@@H]8c9ccc(O)cc9OC[C@@H]8c8ccccc8)cc7F)CC6)C5)CC4)ccc3C2=O)C(=O)N1` (stereo partly drawn) [Example 23, 3-(5-(4-(7-(4-(cis-3-(2-fluorophenyl)-7-hydroxychroman-4-yl)phenyl)-2,7-diazaspiro[3.5]nonane-2-yl)piperidin-1-yl)-1-oxoisoinodolin-2-yl)piperidin-2,6-dione], the DC50 was in the range of 10 to 50 nM and the Dmax was above 75%.

Turning to `O=C1CCC(N2Cc3cc(N4CC5(CCN(CC6CCN(c7c(F)cc([C@H]8c9ccc(O)cc9OC[C@H]8c8c(F)cccc8F)cc7F)CC6)CC5)C4)ccc3C2=O)C(=O)N1` (some centres unmarked) [Example 41], the DC50 is above 100 nM and the Dmax is below 50%.

`O=C1CCC(N2Cc3cc(N4CC5(CCN(CC6CCN(c7c(F)cc(C8=C(c9ccccc9F)COc9cc(OCc%10ccccc%10)ccc98)cc7F)CC6)CC5)C4)ccc3C2=O)C(=O)N1` (centres unmarked) [Example 52]: the DC50 is above 100 nM and the Dmax is below 50%.

Regarding `O=C1CCC(N2Cc3cc(N4CCC(N5CC6(CCN(c7ccc([C@@H]8c9ccc(O)cc9CC[C@@H]8c8ccccc8F)cc7)CC6)C5)CC4)ccc3C2=O)C(=O)N1` (stereo partly drawn) [Example 19, 3-(5-(4-(7-(4-(cis-2-(2-fluorophenyl)-6-hydroxyl-1,2,3,4-tetrahydronaphthalen-1-yl)phenyl)-2,7-diazaspiro[3.5]nonane-2-yl)piperidin-1-yl)-1-oxoisoinodolin-2-yl)piperidin-2,6-dione], the DC50 is below 10 nM and the Dmax was above 75%.

`O=C1CCC(N2Cc3cc(N4CC5(CCN(CC6CCN(c7c(F)cc([C@@H]8c9ccc(OCc%10ccccc%10)cc9OC[C@@H]8c8ccccc8F)cc7F)CC6)CC5)C4)ccc3C2=O)C(=O)N1` (stereo partly drawn) [Example 51, 3-(5-(7-((1-(4-(cis-7-(benzyloxy)-3-(2-fluorophenyl)chroman-4-yl)-2,6-difluorophenyl)piperidin-4-yl)methyl)-2,7-diazaspiro[3.5]nonane-2-yl)-1-oxoisoinodolin-2-yl)piperidin-2,6-one]: the DC50 was above 100 nM and the Dmax was below 50%.

The values above are taken from patent publication US20260258039A1, “AROMATIC COMPOUND, METHOD FOR PREPARING SAME, AND USE THEREOF IN PREPARATION OF ESTROGEN RECEPTOR DEGRADER” (Hinova Pharmaceuticals Inc., priority 2022, published 2026).
